Several values for one entry are separate records, joined by “and”; a condition that tells them apart may be missing. Equal values may be shown once.
Assay: Biodistribution of representative compounds (Example 13), % ID/g in tissues of tumor-bearing mice
Assay type: in vivo, mouse
Conditions: sub-heading prints [^18F]JHU1221785
[1] = 60 min + Blocker cold FAPI-04 10 nmole

Question: Which results are given for N#CC1CCCN1C(=O)CNC(=O)c1ccnc2ccc(OCCCNCC([18F])C(O)C(O)C(O)CO)cc12 (centres unmarked) [[^18F]FAP-FDG]?
Answer: % ID/g Bladder (individual mouse) [1]: 1.45 % ID/g and 2.74 % ID/g; % ID/g Blood (individual mouse) [1]: 0.20 % ID/g and 0.25 % ID/g; % ID/g Brain (individual mouse) [1]: 4.18 % ID/g and 4.67 % ID/g; % ID/g Fat (individual mouse) [1]: 0.63 % ID/g and 0.26 % ID/g; % ID/g Femur (individual mouse) [1]: 1.33 % ID/g and 1.67 % ID/g; % ID/g Heart (individual mouse) [1]: 11.97 % ID/g and 17.79 % ID/g; % ID/g Kidney (individual mouse) [1]: 0.95 % ID/g and 0.87 % ID/g; % ID/g Large intestine (individual mouse) [1]: 3.51 % ID/g and 3.22 % ID/g; % ID/g Liver (individual mouse) [1]: 0.38 % ID/g and 0.55 % ID/g; % ID/g Lung (individual mouse) [1]: 2.25 % ID/g and 2.08 % ID/g; % ID/g Mean Bladder [1]: 2.10 % ID/g; % ID/g Mean Blood [1]: 0.22 % ID/g; % ID/g Mean Brain [1]: 4.43 % ID/g; % ID/g Mean Fat [1]: 0.44 % ID/g; % ID/g Mean Femur [1]: 1.50 % ID/g; % ID/g Mean Heart [1]: 14.88 % ID/g; % ID/g Mean Kidney [1]: 0.91 % ID/g; % ID/g Mean Large intestine [1]: 3.37 % ID/g; % ID/g Mean Liver [1]: 0.47 % ID/g; % ID/g Mean Lung [1]: 2.17 % ID/g; % ID/g Mean Muscle [1]: 6.73 % ID/g; % ID/g Mean Pancreas [1]: 1.01 % ID/g; % ID/g Mean Salivary gland [1]: 3.76 % ID/g; % ID/g Mean Small intestine [1]: 0.77 % ID/g; % ID/g Mean Spleen [1]: 1.30 % ID/g; % ID/g Mean Stomach [1]: 2.76 % ID/g; % ID/g Mean Tumor [1]: 3.65 % ID/g; % ID/g Muscle (individual mouse) [1]: 6.83 % ID/g and 6.64 % ID/g; % ID/g Pancreas (individual mouse) [1]: 1.20 % ID/g and 0.82 % ID/g; % ID/g Salivery gland (individual mouse) [1]: 5.34 % ID/g and 2.19 % ID/g; % ID/g Small intestine (individual mouse) [1]: 0.61 % ID/g and 0.92 % ID/g; % ID/g Spleen (individual mouse) [1]: 0.92 % ID/g and 1.68 % ID/g; % ID/g Stomach (individual mouse) [1]: 3.50 % ID/g and 2.02 % ID/g; % ID/g Tumor (individual mouse) [1]: 3.33 % ID/g and 3.97 % ID/g; % ID/g Bladder (individual mouse) (60 min, 20 μCi per mouse): 2.55 % ID/g and 2.49 % ID/g; % ID/g Blood (individual mouse) (60 min, 20 μCi per mouse): 0.21 % ID/g and 0.25 % ID/g; % ID/g Brain (individual mouse) (60 min, 20 μCi per mouse): 5.31 % ID/g and 6.18 % ID/g; % ID/g Fat (individual mouse) (60 min, 20 μCi per mouse): 3.29 % ID/g and 1.13 % ID/g; % ID/g Femur (individual mouse) (60 min, 20 μCi per mouse): 2.28 % ID/g and 2.68 % ID/g; % ID/g Heart (individual mouse) (60 min, 20 μCi per mouse): 23.96 % ID/g and 16.00 % ID/g; % ID/g Kidney (individual mouse) (60 min, 20 μCi per mouse): 1.13 % ID/g and 2.01 % ID/g; % ID/g Large intestine (individual mouse) (60 min, 20 μCi per mouse): 4.03 % ID/g and 4.32 % ID/g; % ID/g Liver (individual mouse) (60 min, 20 μCi per mouse): 0.55 % ID/g and 0.70 % ID/g; % ID/g Lung (individual mouse) (60 min, 20 μCi per mouse): 2.15 % ID/g and 2.85 % ID/g; % ID/g Mean Bladder (60 min, 20 μCi per mouse): 2.52 % ID/g; % ID/g Mean Blood (60 min, 20 μCi per mouse): 0.23 % ID/g; % ID/g Mean Brain (60 min, 20 μCi per mouse): 5.74 % ID/g; % ID/g Mean Fat (60 min, 20 μCi per mouse): 2.21 % ID/g; % ID/g Mean Femur (60 min, 20 μCi per mouse): 2.48 % ID/g; % ID/g Mean Heart (60 min, 20 μCi per mouse): 19.98 % ID/g; % ID/g Mean Kidney (60 min, 20 μCi per mouse): 1.57 % ID/g; % ID/g Mean Large intestine (60 min, 20 μCi per mouse): 4.17 % ID/g; % ID/g Mean Liver (60 min, 20 μCi per mouse): 0.63 % ID/g; % ID/g Mean Lung (60 min, 20 μCi per mouse): 2.50 % ID/g; % ID/g Mean Muscle (60 min, 20 μCi per mouse): 6.18 % ID/g; % ID/g Mean Pancreas (60 min, 20 μCi per mouse): 1.33 % ID/g; % ID/g Mean Salivary gland (60 min, 20 μCi per mouse): 5.31 % ID/g; % ID/g Mean Small intestine (60 min, 20 μCi per mouse): 1.06 % ID/g; % ID/g Mean Spleen (60 min, 20 μCi per mouse): 1.29 % ID/g; % ID/g Mean Stomach (60 min, 20 μCi per mouse): 2.72 % ID/g; % ID/g Mean Tumor (60 min, 20 μCi per mouse): 5.02 % ID/g; % ID/g Muscle (individual mouse) (60 min, 20 μCi per mouse): 7.65 % ID/g and 4.71 % ID/g; % ID/g Pancreas (individual mouse) (60 min, 20 μCi per mouse): 1.25 % ID/g and 1.42 % ID/g; % ID/g Salivery gland (individual mouse) (60 min, 20 μCi per mouse): 6.70 % ID/g and 3.91 % ID/g; % ID/g Small intestine (individual mouse) (60 min, 20 μCi per mouse): 1.21 % ID/g and 0.91 % ID/g; % ID/g Spleen (individual mouse) (60 min, 20 μCi per mouse): 1.20 % ID/g and 1.38 % ID/g; % ID/g Stomach (individual mouse) (60 min, 20 μCi per mouse): 2.04 % ID/g and 3.39 % ID/g; % ID/g Tumor (individual mouse) (60 min, 20 μCi per mouse): 4.12 % ID/g and 5.91 % ID/g

— US20240382629A1, “HETEROBIVALENT AND HOMOBIVALENT AGENTS TARGETING FIBROBLAST ACTIVATION PROTEIN ALPHA AND/OR PROSTATE-SPECIFIC MEMBRANE ANTIGEN” (The Johns Hopkins University, priority 2021, published 2024)
